Our source for the T/C and complete responses values is patent US20100330029A1, “Cancer Treatments with Radiation and Immunocytokines” (Merck Patent GmbH, priority 2008, published 2010).

Each structure is given as a SMILES string.

For the test, the system named is Lewis lung carcinoma (LLC). Description: tumor growth assay, Lewis lung carcinoma model. Particulars: LLC-3, single-arm groups: cisplatin plus 3.6 Gy/d without EMD521873, or EMD521873 alone. The test is classed as in vivo, mice. The procedure: LL/2 (LLC) cells, a murine Lewis lung carcinoma cell line, were maintained in DMEM, supplemented with 10% heat-inactivated fetal bovine serum, L-glutamine, penicillin/streptomycin (Life Technologies, Inc.) at 37° C. and 7% CO2. LLC cells were implanted in female C57BL/6 mice.
For the tumor growth assay, cells growing exponentially in culture were injected as a single cell suspension in 100 μl of PBS intramuscularly into the upper legs of the mice. In experiments using a dual tumor model, cells were also implanted in the flanks of the mice. […] In Experiment LLC-7, tumors were implanted in the flank until established. Mice were treated on days 0 to 9, then, on day 12, tumors were excised using survival surgery. Thereafter, animal survival was monitored. In Experiment LLC-14, tumors were implanted subcutaneously in the flank until established. Mice were treated on days 0 to 6 and day 17, and tumor size was measured twice weekly for the duration of the study.
Tumors were measured with calipers in three dimensions for the duration of the experiment. Tumor volumes were calculated using the equation:
Volume=4/3π(L/2×W/2×H/2) • where L=length, W=width and H=height of the tumor
For local irradiation, mice were anesthetized by intraperitoneal injection of a solution of 2% tribromoethanol/3% xylazine. The amount injected was 0.02 ml/gram of the recipient's weight. Mice were restrained so that only their tumor-bearing leg was exposed to radiation, while the reminder of the mouse was shielded. Tumors were irradiated with ^137Cs gamma radiation at a dose rate of 1 Gy/min using a Gammacell® 40 Exactor (Nordion, Ottawa, ON).
Data from the subcutaneous tumor growth assay are presented in graphic form depicting average and standard deviations (sd) of tumor volumes or weights during and after dosing. Animal weight changes were determined by subtracting the animal weight at each time point from the initial body weight, on day 0, then dividing by the initial body weight and multiplying by 100. Therefore a value of 0 indicates no weight change.
Student's 2-tailed t test or Mann-Whitney Rank Sum test, as appropriate, was performed on the individual tumor volumes or animal weights, to determine significant differences between treatment groups.

As to `N.N.[Cl][Pt][Cl]` [cisplatin, cis-diammineplatinum (II) dichloride, reference compound], the complete responses was 0/6. Where the note is “day 19”, the T/C was 0.32.
